Data published in patent publication US20130053430A1, “MODULATION OF CETP EXPRESSION” (Isis Pharmaceuticals, Inc., priority 2010, published 2013).
e = 2'-O-(2-methoxyethyl) (MOE); d = 2'-deoxy (DNA)

Assays:
[1] = test system: CETP protein; test: Plasma CETP protein by ELISA, normal or cholesterol-enriched chow (Example 6); assay type: in vivo, human; conditions: 50 mg/kg s.c. twice per week
Procedure: (§1) The normal chow-fed mice were divided into three treatment groups. The cholesterol-enriched chow-fed mice were divided into three treatment groups. […] One chow-fed group and one cholesterol-enriched chow-fed group received subcutaneous injections of saline twice weekly for 6 weeks. The saline-injected groups served as the control groups to which the corresponding oligonucleotide-treated groups were compared.
Plasma levels of CETP protein were measured by ELISA (Alpco, N.H.). […] The results are expressed as percentage inhibition compared to the PBS control.

[2] = Plasma cholesterol and triglyceride levels (Example 6); assay type: in vivo, mice; conditions: 50 mg/kg s.c. twice per week
Source text: as §1
Plasma cholesterol were extracted at weeks 3 and 6 by the method of Bligh and Dyer (Bligh, E. G. and Dyer, W. J. Can. J. Biochem. Physiol. 37: 911-917, 1959) and measured on weeks 0, 3 and 6 with an Olympus clinical analyzer (Hitachi Olympus AU400e, Melville, N.Y.). HDL, LDL and VLDL cholesterol were individually measured by HPLC. Triglyceride levels were measured on weeks 0, 3 and 6 with the use of a commercially available triglyceride kit (DCL Triglyceride Reagent; Diagnostic Chemicals Ltd.). VLDL levels were measured on week 6. The results are presented in Tables 22-26 and are expressed in mg/dL.

[3] = Plasma cholesterol and triglyceride levels in huApoB/huCETP/mLDLr mouse model (Example 7); assay type: in vivo, mice
Source text: The huApoB^+/−huCETP^+/−mLDLr^+/− mice were divided into five groups of 5-7 mice each. […] The saline-injected group served as the control group to which oligonucleotide-treated groups were compared. […] This group served a negative control for the effects of the antisense oligonucleotides against CETP. The groups are further described in Table 27, and are designated letters A-F, by which they will be referred from henceforth.
HDL and LDL cholesterol were individually measured by HPLC. Triglyceride levels were measured on weeks 0, 3 and 6 with the use of a commercially available triglyceride kit (DCL Triglyceride Reagent; Diagnostic Chemicals Ltd.).

[4] = Liver function, plasma ALT and AST, dose response (Example 9); assay type: in vivo, mice
Procedure: Another group received subcutaneous injections of control oligonucleotide ISIS 141923 at a dose of 50 mg/kg/week for 6 weeks. One group of mice received subcutaneous injections of PBS for 6 weeks. The PBS-injected group served as the control group to which treatment groups were compared.

[5] = huApoB+/−huCETP+/−mLDLr+/− mice (Groups B-E), ASO 25 mg/kg s.c. twice/week, Week 0
[6] = huApoB+/−huCETP+/−mLDLr+/− mice (Groups B-E), ASO 25 mg/kg s.c. twice/week, Week 3
[7] = huApoB+/−huCETP+/−mLDLr+/− mice (Groups B-E), ASO 25 mg/kg s.c. twice/week, Week 6
[8] = huApoB+/−huCETP−/−mLDLr+/− mice (Group F), 25 mg/kg s.c. twice/week, Week 0
[9] = huApoB+/−huCETP−/−mLDLr+/− mice (Group F), 25 mg/kg s.c. twice/week, Week 3
[10] = huApoB+/−huCETP−/−mLDLr+/− mice (Group F), 25 mg/kg s.c. twice/week, Week 6

ISIS 349511: 5-10-5 MOE gapmer CCCGACCTCCTTGGAGACTT (sugars from the 5' end e5 d10 e5, backbone and methylation of C not given here)
Percent inhibition of plasma CETP protein levels ([1]; Cholesterol chow, Week 3): 89%
Percent inhibition of plasma CETP protein levels ([1]; Cholesterol chow, Week 6): 85%
Percent inhibition of plasma CETP protein levels ([1]; Normal chow, Week 3): 81%
Percent inhibition of plasma CETP protein levels ([1]; Normal chow, Week 6): 85%
HDL cholesterol levels ([2]; Cholesterol chow, Week 0): 51 mg/dL
LDL cholesterol levels ([2]; Cholesterol chow, Week 0): 179 mg/dL
Total cholesterol levels ([2]; Cholesterol chow, Week 0): 252 mg/dL
Triglyceride levels ([2]; Cholesterol chow, Week 0): 101 mg/dL
HDL cholesterol levels ([2]; Cholesterol chow, Week 3): 85 mg/dL
LDL cholesterol levels ([2]; Cholesterol chow, Week 3): 576 mg/dL
Total cholesterol levels ([2]; Cholesterol chow, Week 3): 714 mg/dL
Triglyceride levels ([2]; Cholesterol chow, Week 3): 94 mg/dL
HDL cholesterol levels ([2]; Cholesterol chow, Week 6): 136 mg/dL
LDL cholesterol levels ([2]; Cholesterol chow, Week 6): 558 mg/dL
Total cholesterol levels ([2]; Cholesterol chow, Week 6): 809 mg/dL
Triglyceride levels ([2]; Cholesterol chow, Week 6): 99 mg/dL
VLDL cholesterol levels ([2]; Cholesterol chow, Week 6): 115 mg/dL
HDL cholesterol levels ([2]; Normal chow, Week 0): 51 mg/dL
LDL cholesterol levels ([2]; Normal chow, Week 0): 176 mg/dL
Total cholesterol levels ([2]; Normal chow, Week 0): 254 mg/dL
Triglyceride levels ([2]; Normal chow, Week 0): 80 mg/dL
HDL cholesterol levels ([2]; Normal chow, Week 3): 56 mg/dL
LDL cholesterol levels ([2]; Normal chow, Week 3): 148 mg/dL
Total cholesterol levels ([2]; Normal chow, Week 3): 227 mg/dL
Triglyceride levels ([2]; Normal chow, Week 3): 90 mg/dL
HDL cholesterol levels ([2]; Normal chow, Week 6): 98 mg/dL
LDL cholesterol levels ([2]; Normal chow, Week 6): 178 mg/dL
Total cholesterol levels ([2]; Normal chow, Week 6): 327 mg/dL
Triglyceride levels ([2]; Normal chow, Week 6): 101 mg/dL
VLDL cholesterol levels ([2]; Normal chow, Week 6): 50 mg/dL
% HDL/total cholesterol [3, 5]: 24%
HDL cholesterol levels [3, 5]: 49 mg/dL
LDL cholesterol levels [3, 5]: 129 mg/dL
Total cholesterol levels [3, 5]: 208 mg/dL
Triglyceride levels [3, 5]: 145 mg/dL
% HDL/total cholesterol [3, 6]: 30%
HDL cholesterol levels [3, 6]: 64 mg/dL
LDL cholesterol levels [3, 6]: 126 mg/dL
Total cholesterol levels [3, 6]: 212 mg/dL
Triglyceride levels [3, 6]: 199 mg/dL
% HDL/total cholesterol [3, 7]: 35%
HDL cholesterol levels [3, 7]: 77 mg/dL
LDL cholesterol levels [3, 7]: 132 mg/dL
Total cholesterol levels [3, 7]: 223 mg/dL
Triglyceride levels [3, 7]: 248 mg/dL

ISIS 349517: 5-10-5 MOE gapmer CAGCACTTTAATGCCAGTGG (sugars from the 5' end e5 d10 e5, backbone and methylation of C not given here)
Percent inhibition of plasma CETP protein levels ([1]; Cholesterol chow, Week 3): 97%
Percent inhibition of plasma CETP protein levels ([1]; Cholesterol chow, Week 6): 96%
Percent inhibition of plasma CETP protein levels ([1]; Normal chow, Week 3): 95%
Percent inhibition of plasma CETP protein levels ([1]; Normal chow, Week 6): 91%
HDL cholesterol levels ([2]; Cholesterol chow, Week 0): 49 mg/dL
LDL cholesterol levels ([2]; Cholesterol chow, Week 0): 134 mg/dL
Total cholesterol levels ([2]; Cholesterol chow, Week 0): 201 mg/dL
Triglyceride levels ([2]; Cholesterol chow, Week 0): 84 mg/dL
HDL cholesterol levels ([2]; Cholesterol chow, Week 3): 78 mg/dL
LDL cholesterol levels ([2]; Cholesterol chow, Week 3): 597 mg/dL
Total cholesterol levels ([2]; Cholesterol chow, Week 3): 739 mg/dL
Triglyceride levels ([2]; Cholesterol chow, Week 3): 107 mg/dL
HDL cholesterol levels ([2]; Cholesterol chow, Week 6): 122 mg/dL
LDL cholesterol levels ([2]; Cholesterol chow, Week 6): 486 mg/dL
Total cholesterol levels ([2]; Cholesterol chow, Week 6): 695 mg/dL
Triglyceride levels ([2]; Cholesterol chow, Week 6): 102 mg/dL
VLDL cholesterol levels ([2]; Cholesterol chow, Week 6): 88 mg/dL
HDL cholesterol levels ([2]; Normal chow, Week 0): 53 mg/dL
LDL cholesterol levels ([2]; Normal chow, Week 0): 162 mg/dL
Total cholesterol levels ([2]; Normal chow, Week 0): 237 mg/dL
Triglyceride levels ([2]; Normal chow, Week 0): 66 mg/dL
HDL cholesterol levels ([2]; Normal chow, Week 3): 64 mg/dL
LDL cholesterol levels ([2]; Normal chow, Week 3): 146 mg/dL
Total cholesterol levels ([2]; Normal chow, Week 3): 238 mg/dL
Triglyceride levels ([2]; Normal chow, Week 3): 97 mg/dL
HDL cholesterol levels ([2]; Normal chow, Week 6): 100 mg/dL
LDL cholesterol levels ([2]; Normal chow, Week 6): 220 mg/dL
Total cholesterol levels ([2]; Normal chow, Week 6): 375 mg/dL
Triglyceride levels ([2]; Normal chow, Week 6): 91 mg/dL
VLDL cholesterol levels ([2]; Normal chow, Week 6): 55 mg/dL
% HDL/total cholesterol [3, 5]: 25%
HDL cholesterol levels [3, 5]: 48 mg/dL
LDL cholesterol levels [3, 5]: 116 mg/dL
Total cholesterol levels [3, 5]: 193 mg/dL
Triglyceride levels [3, 5]: 142 mg/dL
% HDL/total cholesterol [3, 6]: 40%
HDL cholesterol levels [3, 6]: 68 mg/dL
LDL cholesterol levels [3, 6]: 87 mg/dL
Total cholesterol levels [3, 6]: 171 mg/dL
Triglyceride levels [3, 6]: 177 mg/dL
% HDL/total cholesterol [3, 7]: 37%
HDL cholesterol levels [3, 7]: 72 mg/dL
LDL cholesterol levels [3, 7]: 109 mg/dL
Total cholesterol levels [3, 7]: 197 mg/dL
Triglyceride levels [3, 7]: 210 mg/dL
% HDL/total cholesterol [3, 8]: 41%
HDL cholesterol levels [3, 8]: 65 mg/dL
LDL cholesterol levels [3, 8]: 73 mg/dL
Total cholesterol levels [3, 8]: 158 mg/dL
Triglyceride levels [3, 8]: 150 mg/dL
% HDL/total cholesterol [3, 9]: 37%
HDL cholesterol levels [3, 9]: 65 mg/dL
LDL cholesterol levels [3, 9]: 91 mg/dL
Total cholesterol levels [3, 9]: 175 mg/dL
Triglyceride levels [3, 9]: 213 mg/dL
% HDL/total cholesterol [3, 10]: 42%
HDL cholesterol levels [3, 10]: 75 mg/dL
LDL cholesterol levels [3, 10]: 95 mg/dL
Total cholesterol levels [3, 10]: 177 mg/dL
Triglyceride levels [3, 10]: 201 mg/dL
ALT levels ([4]; 1.5 mg/kg/wk, Week 0): 20 IU/L
AST levels ([4]; 1.5 mg/kg/wk, Week 0): 38 IU/L
ALT levels ([4]; 1.5 mg/kg/wk, Week 3): 18 IU/L
AST levels ([4]; 1.5 mg/kg/wk, Week 3): 43 IU/L
ALT levels ([4]; 1.5 mg/kg/wk, Week 6): 54 IU/L
AST levels ([4]; 1.5 mg/kg/wk, Week 6): 133 IU/L
ALT levels ([4]; 5 mg/kg/wk, Week 0): 26 IU/L
AST levels ([4]; 5 mg/kg/wk, Week 0): 40 IU/L
ALT levels ([4]; 5 mg/kg/wk, Week 3): 25 IU/L
AST levels ([4]; 5 mg/kg/wk, Week 3): 46 IU/L
ALT levels ([4]; 5 mg/kg/wk, Week 6): 49 IU/L
AST levels ([4]; 5 mg/kg/wk, Week 6): 246 IU/L
ALT levels ([4]; 15 mg/kg/wk, Week 0): 24 IU/L
AST levels ([4]; 15 mg/kg/wk, Week 0): 24 IU/L
ALT levels ([4]; 15 mg/kg/wk, Week 3): 27 IU/L
AST levels ([4]; 15 mg/kg/wk, Week 3): 47 IU/L
ALT levels ([4]; 15 mg/kg/wk, Week 6): 36 IU/L
AST levels ([4]; 15 mg/kg/wk, Week 6): 70 IU/L
ALT levels ([4]; 50 mg/kg/wk, Week 0): 27 IU/L
AST levels ([4]; 50 mg/kg/wk, Week 0): 27 IU/L
ALT levels ([4]; 50 mg/kg/wk, Week 3): 33 IU/L
AST levels ([4]; 50 mg/kg/wk, Week 3): 52 IU/L
ALT levels ([4]; 50 mg/kg/wk, Week 6): 76 IU/L
AST levels ([4]; 50 mg/kg/wk, Week 6): 171 IU/L

ISIS 141923: CCTTCCCTGAAGGTTCCTCC, 5-10-5 MOE gapmer, a control oligonucleotide which has no known murine target (sugars from the 5' end e5 d10 e5, backbone and methylation of C not given here) [reference compound]
% HDL/total cholesterol [3, 5]: 25%
HDL cholesterol levels [3, 5]: 50 mg/dL
LDL cholesterol levels [3, 5]: 123 mg/dL
Total cholesterol levels [3, 5]: 201 mg/dL
Triglyceride levels [3, 5]: 137 mg/dL
% HDL/total cholesterol [3, 6]: 24%
HDL cholesterol levels [3, 6]: 55 mg/dL
LDL cholesterol levels [3, 6]: 149 mg/dL
Total cholesterol levels [3, 6]: 228 mg/dL
Triglyceride levels [3, 6]: 177 mg/dL
% HDL/total cholesterol [3, 7]: 31%
HDL cholesterol levels [3, 7]: 74 mg/dL
LDL cholesterol levels [3, 7]: 150 mg/dL
Total cholesterol levels [3, 7]: 235 mg/dL
Triglyceride levels [3, 7]: 192 mg/dL
ALT levels ([4]; 50 mg/kg/wk, Week 0): 27 IU/L
AST levels ([4]; 50 mg/kg/wk, Week 0): 26 IU/L
ALT levels ([4]; 50 mg/kg/wk, Week 3): 27 IU/L
AST levels ([4]; 50 mg/kg/wk, Week 3): 46 IU/L
ALT levels ([4]; 50 mg/kg/wk, Week 6): 45 IU/L
AST levels ([4]; 50 mg/kg/wk, Week 6): 107 IU/L
